US20250186379A1, “METHODS AND AGENTS FOR DECREASING INSULIN RESISTANCE” (Whitehead Institute for Biomedical Research, priority 2021, published 2025)

System: HepG2 cells
Assay: Stable isotope tracing for lipogenesis in HepG2 cells
Assay type: cell-based, human
Experimental: To wash out insulin, cells were washed with EMEM (ATCC 30-2003) seven times, including: three quick washes, three 5-minute washes and a long 20 minute-wash in EMEM at 37° C. Cells were then cultured in EMEM supplemented with 1 mM Sodium acetate-^13C2(Sigma Aldrich, 282014) and with either 0 nM insulin or 1 nM insulin for 36 hours. Media was replenished after 24 hours. Cells were then processed for metabolite isolation (see below).
Metabolite isolation from HepG2 cells: cells were washed in ice-cold PBS (Life Technologies, AM9625), 500 μl of cold 80% MeOH (shared by the Metabolite Profiling Core Facility) was added per well of a 6-well plate and the plate was placed at −80° C. for at least 15 minutes. Following the −80 incubation, the plate was scraped on dry ice and the solution was transferred to a 1.5 ml tube and then vortexed for 5 minutes. To remove cellular debris, the samples were centrifuged at maximum speed for 10 minutes at 4° C. and the supernatant was transferred to a new 1.5 mL tube on dry ice. To remove solvents, the samples were lyophilized using Refrigerated CentriVap Benchtop Vacuum Concentrator connected to a CentriVap-105 Cold Trap (Labconco). Metabolite pellets were re-suspended in LC-MS grade water (ThermoFisher) and vortexed for 10 minutes at 4° C. Samples were centrifuged at 16,000 g for 10 minutes at 4° C. and supernatant was moved into LC-MS vials. […]

Substance: insulin: insulin (Sigma Aldrich, I9278-5ML) used for acute stimulation and chronic physiological or pathological exposure
- lipogenesis after insulin stimulation (cells exposed to pathologic levels (3 nM) of insulin for two days): unchanged
- lipogenesis (insulin-sensitive HepG2 cells, 1 nM insulin 36 hours): increased lipogenesis
